According to patent publication EP0804408B1, “NOVEL 4-SUBSTITUTED 2,6-DI-TERT-BUTYLPHENOL COMPOUNDS, PHARMACEUTICAL COMPOSITIONS CONTAINING SAME AND PREPARATION METHOD THEREFOR” (priority 1994, dated 1996):

System: virus-stock de souche HSV1
Assay: Virucidal properties on HSV1 stock virus (infectious titre after incubation at 37°C)
Type: cell-based
Description: On a apprécié les propriétés virucides du 3,5-di-t-butyl-4-hydroxybenzoate d'octaoxyéthylèneglycol de formule : [drawing 23] dénommé ci-après par commodité AVF1, sur un échantillon de "virus-stock" de souche HSV1. Le titre infectieux (TV) d'échantillons traités avec AVF1 a été comparé au titre infectieux (TV0) d'un échantillon témoin afin de calculer la valeur log (TV/TV0).
Le protocole a consisté à incuber à 37°C l'échantillon de virus HSV1 stock avec le composé AVF1, en faisant varier la concentration en AVF1 et le temps d'incubation. TV0 a été déterminé à partir d'une composition constituée de 0,5 ml de milieu de culture MEM et 0,5 ml de virus-stock et TV a été déterminée à partir d'une composition constituée de 0,5 ml de AVF1 à diverses concentrations dans ledit milieu MEM et de 0,5 ml de virus-stock. Les valeurs TV0 et TV obtenus sont des multiples de la DI50/ml.
• Concentrations en AVF1 : 0,03; 0,06; 0,12; 0,25; 0,5; 1,25; 2,5; 5 mg/ml. • Temps d'incubation : 60 et 120 minutes. • Résultats : • Titre du témoin-virus : […] DI50/ml. • AVF1 < 2,5 mg/ml : TV. • AVF1 ≥ 2,5 mg/ml : 0. • Conclusions : AVF1 est virucide en 60 minutes à la concentration 2,5 mg/ml.
• Concentrations en AVF1 : 1 et 5 mg/ml. • Temps d'incubation : 5, 15, 30, et 60 minutes. • Résultats : • Titre du témoin-virus : 2 x 10^6 DI50/ml • AVF1 = 5 mg/ml : virucide en 5 minutes, titre = 0. • AVF1 = 1 mg/ml : le titre est réduit de 1,5 log 10 en 60 minutes.

## CC(C)(C)c1cc(C(=O)OCCOCCOCCOCCOCCOCCOCCOCCO)cc(C(C)(C)C)c1O [AVF1, 3,5-di-t-butyl-4-hydroxybenzoate d'octaoxyéthylèneglycol]
Essai 1, 60 minutes, 37°C
  concentration virucide en 60 minutes: 2,5 mg/ml
Essai 1, AVF1 ≥ 2,5 mg/ml, incubation 60 and 120 minutes, 37°C
  Titre infectieux (TV): 0 DI50/ml
Essai 2, AVF1 = 1 mg/ml, 60 minutes
  réduction du titre: 1,5 log 10
Essai 2, AVF1 = 5 mg/ml, virucidal in 5 minutes
  titre: 0 DI50/ml
